Data set [1] has as its system trypsin. Particulars: peptide remaining by HPLC, incubation with trypsin 100:1, 37° C.
Procedure: (§7) A 1000 μg/1000 μL trypsin solution (Thermo Fisher Scientific) was prepared by suspending the lyophilized enzyme in 50 mM ammonium bicarbonate buffer, pH 8.2. Peptide dissolved in the same buffer (1 μg/L) was incubated with trypsin (peptide:trypsin ratio=100:1) for 24 h at 37° C. Samples were collected at various time points and digestion was stopped by addition of 20% (v/v) of 0.5% formic acid in H2O. Samples were stored at −20° C. until analyzed by reverse-phase HPLC-MS. Experiments are performed in duplicate and data were fit with GraphPad Prism.
Data set [2] addresses T1, CB1R and 5-HT2AR heteromers (Homo sapiens, UniProt P28223).
T1 construct: expressed in transfected cells; host or cells: HEK-293T
As to the kind of experiment: Disruption of CB1R and 5-HT2AR heteromers by bimolecular fluorescence complementation. It is filed as cell-based. Particulars: HEK-293T, CB1R-nYFP + 5-HT2AR-cYFP, peptide 4 μM, 4 h, 37° C. From the text: The method described in “Viñals* X, Moreno* E, Lanfumey L, Cordomi A, Pastor A, de La Torre R, Gasperini P, Navarro G, Howell L A, Pardo L, Lluís C, Canela El, McCormick* P J, Maldonado* R, Robledo* P. Cognitive Impairment Induced by Delta9-tetrahydrocannabinol Occurs through Heteromers between Cannabinoid CB1 and Serotonin 5-HT2A Receptors. PLoS Biology, 13(7): e1002194 (2015)” was used with the slight modifications herein described herein to determine the in vitro capacity of the peptides to disrupt CB1R and 5-HT2AR heteromers.
To obtain the YFP Venus hemi-truncated proteins fused to the receptors of interest (5-HT2AR-cYFP, CB1R-nYFP), 5-HT2AR was subcloned to be in-frame with restriction sites of pcDNA3.1-cVenus, which contained the sequences encoding amino acid residues 156-238 of YFP Venus protein. Moreover, CB1R was subcloned to be in-frame with restriction sites of pcDNA3.1-nVenus, which contained the sequences encoding amino acid residues 1-155 of YFP Venus protein.
Expression of constructs was tested by confocal microscopy and the receptor fusion protein functionality by ERK1/2 phosphorylation.
Human embryonic kidney (HEK-293T) cells obtained from ATCC were grown in Dulbecco's modified Eagle's medium (DMEM) (Gibco) supplemented with 2 mM L-glutamine, 100 μg/ml sodium pyruvate, 100 U/ml penicillin/streptomycin, MEM Non-Essential Amino Acids Solution (1/100), and 5% (v/v) heat inactivated fetal bovine serum (FBS) (all supplements were from Invitrogen, Paisley, Scotland, UK). Cells were maintained at 37° C. in an atmosphere of 5% CO2.
Cells growing in 6-well dishes were transiently transfected with the cDNA encoding for CB1R fused to the YFP Venus N-terminal fragment (n-YFP) and 5-HT2AR fused to the YFP Venus C-terminal fragment (c-YFP) by the PEI (PolyEthylenlmine, Sigma) method. Cells were incubated 4 h with the corresponding cDNA together with PEI and 150 mM NaCl in a serum-starved medium. After 4 h, the medium was changed to a fresh complete culture medium.
After 48 h, cells were treated or not with the indicated TAT-peptides (4 μM) for 4 h at 37° C. To quantify the complemented YFP Venus expression, cells were washed twice in quick succession in HBSS with 10 mM glucose, detached, and resuspended in the same buffer. To control the cell number, sample protein concentration was determined using a Bradford assay kit (Bio-Rad, Munich, Germany) using bovine serum albumin dilutions as standards. 20 μg protein were distributed into 96-well microplates (black plates with a transparent bottom, Porvair, King's Lynn, UK), and fluorescence emission at 530 nm after the excitation at 500 nm with a Mithras LB940 (Berthold Technologies, Bad Wildbad, Germany) was recorded. Protein fluorescence was determined as fluorescence of the sample minus the fluorescence of untransfected cells (basal).

For data set [3], the system named is trypsin. Put plainly: in vitro. Particulars: pH 8.2.
Procedure: as §7
The next data set can be described thus: in vitro. The note with it: mouse, bEnd.3 brain endothelioma cells. As to the method: (§1) bEnd.3 brain endothelioma cells (ATCC® CRL-2299TM) were grown as a monolayer on 75 cm^2 T-flasks in DMEM supplemented with 10% fetal bovine serum (FBS), and 1% penicillin/streptomycin antibiotic solution (Gibco™, USA). Cells were cultured in a humidified atmosphere of 95% air and 5% CO2 at 37° C. (MCO-18AIC (UV), Sanyo, Japan), with the medium changed every other day. The cells were harvested from cell culture T-flasks when confluent with trypsin-EDTA (Gibco™, USA) and used in different assays (cell proliferation, in vitro BBB translocation and in vitro Bimolecular Fluorescence complementation).
(§2) The in vitro cytotoxicity of the compound to be evaluated is studied using the same cell line of the in vitro BBB model, namely bEnd.3 cells, to evaluate possible toxicity. bEnd.3 cell line was exposed to increasing concentrations of the compound for 24 h.
(§3) The assay is based on the ability of viable cells to reduce resazurin into resorufin, a highly fluorescent metabolite. Non-viable cells are not able to generate resorufin.
(§4) Therefore, using this approach is possible to distinguish between metabolic and non-metabolic cells, and indirectly to determine the cytotoxicity of different compounds. bEnd.3 cells were seeded onto a 96-well plate (Corning, USA) at 10,000 cells/100 μL/well and incubated for 24 h. After medium removal, 100 μL of previous diluted peptides (range between 0.01-50 μM) in DMEM medium were added to the wells. After 24 h incubation, 20 μL of CellTiter-Blue® Reagent was added to each well and incubated for 3 h in a humidified atmosphere of 5% CO2 at 37° C. The fluorescence intensity was measured with an λexc=560 nm and an λem=590 nm using an Infinite F200 TECAN plate reader. Medium and 1% Triton X-100-containing medium were used as positive controls (100% cell viability) and negative controls (0% cell viability), respectively. Cell viability (%) was determined using the following equation:
(§5) [formula] where Fp is the fluorescence intensity of peptide-treated cells, FNC is the fluorescence intensity for negative controls, and FPC is the fluorescence intensity for positive controls.
(§6) Experiments were performed on different days using independently grown cell cultures.

In another data set the test system is bEnd.3 cells. Put plainly: in vitro. Particulars: bEnd.3, 24 h, 0.01-50 μM. As to the method: as §1, §2, §3, §4, §5, §6
The nature of data set [4]: Novel object recognition test (memory). The data set is classed as in vivo. Particulars: Vehicle (IV) + THC 3 mg/kg IP, mice. As to the method: The method described in “Puighermanal E, Marsicano G, Busquets-Garcia A, Lutz B, Maldonado R, Ozaita A. Cannabinoid modulation of hippocampal long-term memory is mediated by mTOR signaling. Nature Neuroscience, 12(9): 1152-8 (2009)” was used with the slight modifications herein described to assess the effect of the peptides on memory.
On day 1 (Habituation), mice were habituated for 9 min to the V-maze in which the task was performed. On the second day (Training), mice were put back in the V-maze for 9 min, two identical objects were presented and the time that the mice spent exploring each object was recorded. The mice were again placed in the maze 24 h later for 9 min (Test), one of the familiar objects was replaced with a novel object and the total time spent exploring each of the two objects (novel and familiar) was computed. Object exploration was defined as the orientation of the nose to the object at less than 2 cm. A discrimination index was calculated as the difference between the times spent exploring the novel or familiar object divided by the total time exploring the two objects. A higher discrimination index is considered to reflect greater memory retention for the familiar object as normal mice spend more time exploring a novel object than a familiar one. […]

The nature of data set [5]: Hot plate test (analgesic effect). The data set is classed as in vivo. Particulars: Vehicle (IV) + THC 10 mg/kg IP, hot plate 52° C., mice. The protocol:
The method described in “Monory K, Blaudzun H, Massa F, Kaiser N, Lemberger T, Schütz G, Wotjak C T, Lutz B*, Marsicano G*. Genetic Dissection of Behavioural and Autonomic Effects of D9-tetrahydrocannabinol in Mice. PLoS Biology, 5(10): e269, 2007” was used with the slight modifications herein described to assess the analgesic effect of the peptides.
THC-induced analgesia was measured using a hot plate analgesia meter (Hot/Cold Plate Test, Bioseb, USA) 60 min after intraperitoneal injection (IP) of THC dissolved in an IP vehicle (5% v/v of ethanol, 5% v/v of Cremophor-EL and 90% v/v saline) or injection of the vehicle (saline plus 2% DMSO) alone and by intravenous injection 90 min after the first injection of the peptide to be tested in an IV vehicle or of the vehicle alone. […] A cut-off time of 240 s was set to prevent tissue damage.
On the technique in general: In hot-plate and tail-flick tests a longer latency is read as antinociception.

Non-standard residues stand in square brackets, D forms with d. Residues, ends and D or L forms follow the SMILES beside them. No end group written: not given here. Bounds are passed on as bounds.

T1 sequence (P28223 whole entry, one chain of several): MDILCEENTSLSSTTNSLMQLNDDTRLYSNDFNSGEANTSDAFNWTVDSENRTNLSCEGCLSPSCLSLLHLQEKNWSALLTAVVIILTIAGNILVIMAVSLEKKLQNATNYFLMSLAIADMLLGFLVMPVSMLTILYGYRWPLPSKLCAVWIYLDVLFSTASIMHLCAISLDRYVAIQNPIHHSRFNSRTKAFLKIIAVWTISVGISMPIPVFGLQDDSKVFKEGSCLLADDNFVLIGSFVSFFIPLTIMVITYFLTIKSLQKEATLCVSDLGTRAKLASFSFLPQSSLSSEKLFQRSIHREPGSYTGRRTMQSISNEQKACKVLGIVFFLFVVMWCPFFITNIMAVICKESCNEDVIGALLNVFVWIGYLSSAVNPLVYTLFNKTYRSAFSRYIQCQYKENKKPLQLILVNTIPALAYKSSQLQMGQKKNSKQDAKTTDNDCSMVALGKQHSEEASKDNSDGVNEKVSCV

One may read the amount remaining as the share of the starting amount still present when the sample was taken. In general, EC50 refers to the midpoint of the concentration-response curve. As usually defined, the viability is a read-out of living cells in per cent, often relative to untreated cells. As to `CC[C@@H](C)[C@@H](NC(=O)CNC(=O)[C@@H](C)NC(=O)[C@H](NC(=O)[C@@H](Cc1ccc(O)cc1)NC(=O)[C@@H](C)NC(=O)[C@@H](Cc1ccc(O)cc1)NC(=O)[C@@H](CCSC)NC(=O)[C@@H](Cc1ccc(O)cc1)NC(=O)[C@H](NC(=O)[C@@H](CC(C)C)NC(=O)[C@H](N)Cc1c[nH]c2ccccc12)[C@H](C)CC)C(C)C)C(=O)N[C@H](CC(C)C)C(=O)N[C@H](CCCCN)C(=O)N[C@H](CCCNC(=N)N)C(=O)N[C@H](Cc1c[nH]c2ccccc12)C(N)=O` [Example 1, D-Trp-D-Leu-D-Ile-D-Tyr-D-Met-D-Tyr-D-Ala-D-Tyr-D-Val-D-Ala-Gly-D-Ile-D-Leu-D-Lys-D-Arg-D-Trp-NH2] (H-[dW][dL][dI][dY][dM][dY][dA][dY][dV][dA]G[dI][dL][dK][dR][dW]-NH2), the “% at t = 24 h” value in the data set on trypsin [1] (pH 8.2, 24 h) is reported as “over 80%”. Also, in the data set with trypsin [1] (pH 8.2, t = 0), the “% at t = 0” value came to 100.00 ± 2.05%. Moreover, the “% vs. control (bimolecular fluorescence complementation)” value in data set [2] amounted to 49.8%. In the data set with trypsin [3], this molecule had a share remaining at 24 h, 1 μg/L of 83 ± 4.04%. Besides, in “in vitro”, the EC50 at 24 h is greater than 50 µM; the viability at 24 h, 0.012 µM is 98.3%; the viability at 24 h, 0.024 µM amounted to 98.3%; the viability at 24 h, 0.049 µM was determined as 98.7%. Also, in “in vitro”, the viability at 24 h, 0.1 µM came to 95.4%; the viability at 24 h, 0.2 µM was found to be 100%; the viability at 24 h, 0.39 µM amounted to 102%; the viability at 24 h, 0.78 µM worked out at 98.9%. For the same molecule, in “in vitro”, the viability at 24 h, 1.56 µM was 102%; the viability at 24 h, 3.12 µM is 100%; the viability at 24 h, 6.25 µM stood at 96.6%; the viability at 24 h, 12.5 µM came out at 104%. In the data set “in vitro”, the viability at 24 h, 25 µM is 96.6% and the viability at 24 h, 50 µM worked out at 75.7%. The “toxicity (in words)” value with bEnd.3 cells is reported as “no significant toxicity”.
In the case of `CCCCCc1cc(O)c2c(c1)OC(C)(C)[C@@H]1CCC(C)=C[C@@H]21` [THC, Δ9-tetrahydrocannabinol], in data set [4], the “Discrimination index % increase vs. control” value is on record as −52%. In addition, in data set [5], the “Jumping latency % increase vs control” value amounted to 71.4% and the “Licking latency % increase vs control” value turned out to be 104.2%.
With “Glu-Thr-Tyr-Leu-Met-Phe-Trp-Ile-Gly-Val-Thr-Ser-Val-Leu-Leu-Leu-Phe-Ile-Val-Tyr-Ala-Tyr-Met-Tyr-Ile-Leu-Trp-Gly-Arg-Lys-Lys-Arg-Arg-Gln-Arg-Arg-Arg-NH2 (ETYLMFWIGVTSVLLLFIVYAYMYILWGRKKRRQRRR-NH2) [Reference Example 1]”, in data set [2], the “% vs. control (bimolecular fluorescence complementation)” value worked out at 52.2% and the “Fluorescense units (bimolecular fluorescence complementation)” value is 11154 fluorescence units.
For “VYAYMYILW[dA]G[dI][dL][dK][dR][dW]-NH2 [Reference Example 2]”, in that order: 63.5% and 13568 fluorescence units.
For “[dW][dL][dI][dY][dM][dA]G[dI][dL][dK][dR][dW]-NH2 [Reference Example 3]”, in that order: 78.5% and 16754 fluorescence units.

These data come from patent publication US12459973B2, “Peptide compounds for reducing side effects of CB1 receptor agonists” (priority 2019, dated 2025).
